Laboratory results from ChEMBL document CHEMBL1201862, “PubChem BioAssay data set” (2004).
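Step 1: Grow cells in 96-well plates. Step 2: Expose to compound for 48 hours at 5 concentrations. Step 3: Interpolate endpoints linearly; if unreached, use highest concentration. At the GI50, growth is halved.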 Activity calls are given as the source filed them. Cut-off read from the data, not from the text of the source: active = GI50 up to about 1.1 µM and inactive = higher.

What was measured:
Assay in all cases: growth of human tumour cells (NCI), 48 h
RPMI-8226 = test system: RPMI-8226
SR = test system: SR
TK-10 = test system: TK-10
U-251 = test system: U-251
OVCAR-8 = test system: OVCAR-8
SK-MEL-28 = test system: SK-MEL-28
SK-MEL-5 = test system: SK-MEL-5
NCI-H23 = test system: NCI-H23
SNB-75 = test system: SNB-75
SN12C = test system: SN12C
SF-539 = test system: SF-539
MDA-N = test system: MDA-N
A498 = test system: A498
CAKI-1 = test system: CAKI-1
NCI-H460 = test system: NCI-H460
UO-31 = test system: UO-31
HCC 2998 = test system: HCC 2998
UACC-257 = test system: UACC-257
HCT-116 = test system: HCT-116
786-0 = test system: 786-0

| SMILES | GI50 (RPMI-8226) | GI50 (SR) | GI50 (TK-10) | GI50 (U-251) | GI50 (OVCAR-8) | GI50 (SK-MEL-28) | GI50 (SK-MEL-5) | GI50 (NCI-H23) | GI50 (SNB-75) | GI50 (SN12C) | GI50 (SF-539) | GI50 (MDA-N) | GI50 (A498) | GI50 (CAKI-1) | GI50 (NCI-H460) | GI50 (UO-31) | GI50 (HCC 2998) | GI50 (UACC-257) | GI50 (HCT-116) | GI50 (786-0) |
| --- | --- | --- | --- | --- | --- | --- | --- | --- | --- | --- | --- | --- | --- | --- | --- | --- | --- | --- | --- | --- |
| O=c1[nH]c(=O)n(CCOCP(=O)(O)O)nc1Br | > 100 µM (inactive) | > 100 µM (inactive) | > 100 µM (inactive) | > 100 µM (inactive) | > 100 µM (inactive) | > 100 µM (inactive) | > 100 µM (inactive) | > 100 µM (inactive) | > 100 µM (inactive) | > 100 µM (inactive) | > 100 µM (inactive) | > 100 µM (inactive) | > 100 µM (inactive) | > 100 µM (inactive) | > 100 µM (inactive) | > 100 µM (inactive) | > 100 µM (inactive) |  |  |  |
| CC(C)=CCC[C@@H](C)C1=CC(=O)C(C)=C(O)C1=O [ISOPEREZONE] | 0.445 µM (active) | 2.39 µM (inactive) | 5.11 µM (inactive) | 8.79 µM (inactive) | 2.15 µM (inactive) | 11 µM (inactive) | 6.12 µM (inactive) | 6.75 µM (inactive) | 4.5 µM (inactive) | 10.7 µM (inactive) |  | 4.81 µM (inactive) | 17 µM (inactive) | 4.95 µM (inactive) | 16.3 µM (inactive) | 3.69 µM (inactive) | 17.1 µM (inactive) | 10.9 µM (inactive) | 4.08 µM (inactive) | 5.78 µM (inactive) |
| OC(Cc1cccnc1)(c1ccccc1)c1ccccc1 | 42.9 µM (inactive) | 58.7 µM (inactive) | > 100 µM (inactive) | > 100 µM (inactive) | > 100 µM (inactive) | > 100 µM (inactive) | 32.9 µM (inactive) | 70.8 µM (inactive) | > 100 µM (inactive) | > 100 µM (inactive) |  | 47.2 µM (inactive) | > 100 µM (inactive) | > 100 µM (inactive) | > 100 µM (inactive) | > 100 µM (inactive) | > 100 µM (inactive) | 41.3 µM (inactive) | > 100 µM (inactive) | > 100 µM (inactive) |
| C=CCNC1=C2C[C@@H](C)C[C@@H](OC)[C@H](OC(=O)CCCCN)[C@H](C)/C=C(\C)[C@@H](OC(N)=O)[C@H](OC)/C=C\C=C(/C)C(=O)NC(=CC1=O)C2=O | 9.04 µM (inactive) | 4.93 µM (inactive) | 15 µM (inactive) | 10.9 µM (inactive) | 19.4 µM (inactive) | 18.5 µM (inactive) | 11.6 µM (inactive) | 14.6 µM (inactive) | 5.51 µM (inactive) | 13 µM (inactive) |  | 8.55 µM (inactive) | 12.9 µM (inactive) | 18.5 µM (inactive) | 11.6 µM (inactive) | 19.5 µM (inactive) | 4.27 µM (inactive) | 6.17 µM (inactive) | 13.8 µM (inactive) | 13.4 µM (inactive) |
| O=C(O)c1ccc(NC(NC(=O)C(C(F)(F)F)C(F)(F)F)(C(F)(F)F)C(F)(F)F)cc1 | > 100 µM (inactive) | > 100 µM (inactive) | > 100 µM (inactive) | > 100 µM (inactive) | > 100 µM (inactive) | > 100 µM (inactive) | > 100 µM (inactive) | > 100 µM (inactive) | > 100 µM (inactive) | > 100 µM (inactive) | > 100 µM (inactive) | > 100 µM (inactive) | > 100 µM (inactive) | > 100 µM (inactive) |  | > 100 µM (inactive) | > 100 µM (inactive) | > 100 µM (inactive) | > 100 µM (inactive) | > 100 µM (inactive) |
| CC(C)(CO)CNc1cc(=O)[nH]c(N)n1 | > 100 µM (inactive) | > 100 µM (inactive) |  | > 100 µM (inactive) | > 100 µM (inactive) | > 100 µM (inactive) | > 100 µM (inactive) | > 100 µM (inactive) | > 100 µM (inactive) | > 100 µM (inactive) |  | > 100 µM (inactive) | > 100 µM (inactive) | > 100 µM (inactive) | > 100 µM (inactive) | > 100 µM (inactive) | > 100 µM (inactive) | > 100 µM (inactive) | > 100 µM (inactive) | > 100 µM (inactive) |
| C=CCOc1ccc(C2(c3ccc(OCC=C)cc3)C(=O)Nc3ccccc32)cc1 | > 10 µM (inactive) | > 10 µM (inactive) | > 10 µM (inactive) | > 10 µM (inactive) | > 10 µM (inactive) | > 10 µM (inactive) | > 10 µM (inactive) | > 10 µM (inactive) | > 10 µM (inactive) | > 10 µM (inactive) | > 10 µM (inactive) | > 10 µM (inactive) | > 10 µM (inactive) | > 10 µM (inactive) | > 10 µM (inactive) |  | > 10 µM (inactive) | > 10 µM (inactive) | > 10 µM (inactive) | > 10 µM (inactive) |
| N#Cc1c(N)n(-c2nc3ccccc3s2)c(=O)c2cc([N+](=O)[O-])ccc12 | 10.8 µM (inactive) | 14.2 µM (inactive) | 23.6 µM (inactive) | 19.9 µM (inactive) | 16.8 µM (inactive) | 26.7 µM (inactive) |  | 9.38 µM (inactive) | 14.9 µM (inactive) | 23.1 µM (inactive) | 12.4 µM (inactive) | 25.9 µM (inactive) | 17.1 µM (inactive) | 20.9 µM (inactive) | 6.32 µM (inactive) | 21.7 µM (inactive) | 9.44 µM (inactive) | 23.4 µM (inactive) | 4.44 µM (inactive) | 21.7 µM (inactive) |
| O=c1c(C(c2ccc(C(c3c(O)oc4cc(O)ccc4c3=O)c3c(O)oc4cc(O)ccc4c3=O)cc2)c2c(O)oc3cc(O)ccc3c2=O)c(O)oc2cc(O)ccc12 |  | > 100 µM (inactive) | > 100 µM (inactive) | > 100 µM (inactive) | > 100 µM (inactive) | > 100 µM (inactive) | 48.6 µM (inactive) | > 100 µM (inactive) | > 100 µM (inactive) | 93.1 µM (inactive) | > 100 µM (inactive) | > 100 µM (inactive) | > 100 µM (inactive) | > 100 µM (inactive) | > 100 µM (inactive) | > 100 µM (inactive) | > 100 µM (inactive) | > 100 µM (inactive) | > 100 µM (inactive) |  |
| Cc1cc(-c2cccc3ccccc23)c(C#N)c(=S)n1C1OC(CO)C(O)C(O)C1O (stereo not given) |  | 98.4 µM (inactive) | > 100 µM (inactive) |  | > 100 µM (inactive) |  | 67 µM (inactive) | > 100 µM (inactive) | 0.0379 µM (active) | 82.8 µM (inactive) | > 100 µM (inactive) | > 100 µM (inactive) | > 100 µM (inactive) | > 100 µM (inactive) | > 100 µM (inactive) |  | > 100 µM (inactive) | > 100 µM (inactive) | > 100 µM (inactive) | > 100 µM (inactive) |
| CC(=O)Nc1ncc2c(n1)-c1ccccc1OC2c1ccccc1 (stereo not given) | > 100 µM (inactive) | > 100 µM (inactive) | 28.7 µM (inactive) | 33.1 µM (inactive) | 23.6 µM (inactive) |  | > 100 µM (inactive) | 26.1 µM (inactive) | 14.1 µM (inactive) | 87.9 µM (inactive) | 13.2 µM (inactive) | > 100 µM (inactive) | 20.7 µM (inactive) | 26.1 µM (inactive) | > 100 µM (inactive) | > 100 µM (inactive) |  | > 100 µM (inactive) | 80.9 µM (inactive) | 12.4 µM (inactive) |
| [N-]=[N+]=Nc1c(-c2ccccc2)c(=O)n(-c2ccccc2)c2ccccc12 | > 100 µM (inactive) | > 100 µM (inactive) | > 100 µM (inactive) | 52.1 µM (inactive) | 90.2 µM (inactive) | 94.6 µM (inactive) |  | 80.5 µM (inactive) | 36.4 µM (inactive) | 60.8 µM (inactive) | > 100 µM (inactive) | 45.3 µM (inactive) | 77.8 µM (inactive) |  | 46.5 µM (inactive) | 37.3 µM (inactive) | 35.2 µM (inactive) | 65.8 µM (inactive) | 34.7 µM (inactive) | > 100 µM (inactive) |
| CCCCc1ccc(-n2sc3ncc(-c4ccccc4)cc3c2=O)cc1 | > 100 µM (inactive) | > 100 µM (inactive) | > 100 µM (inactive) | > 100 µM (inactive) | 43.2 µM (inactive) | > 100 µM (inactive) | > 100 µM (inactive) | > 100 µM (inactive) | > 100 µM (inactive) | > 100 µM (inactive) |  | > 100 µM (inactive) | > 100 µM (inactive) | 64.3 µM (inactive) | > 100 µM (inactive) | > 100 µM (inactive) | > 100 µM (inactive) | > 10 µM (inactive) | > 100 µM (inactive) | > 100 µM (inactive) |
| CN(C)/C=N/c1c2c(nc3ccccc13)CCCC2 | 53.3 µM (inactive) | 25.9 µM (inactive) | > 100 µM (inactive) | > 100 µM (inactive) | 50.1 µM (inactive) | 44.2 µM (inactive) | > 100 µM (inactive) | 50.7 µM (inactive) | 93.8 µM (inactive) | > 100 µM (inactive) | 96.4 µM (inactive) | 61.7 µM (inactive) | 49.9 µM (inactive) | > 100 µM (inactive) |  | 67.8 µM (inactive) |  | 71 µM (inactive) | 39.1 µM (inactive) | > 100 µM (inactive) |
| Cc1ccc(S(=O)(=O)NCCN(CCNS(=O)(=O)c2ccc(C)cc2)S(=O)(=O)c2ccc(C)cc2)cc1 | 56.2 µM (inactive) | > 100 µM (inactive) | 41.4 µM (inactive) | 28.9 µM (inactive) | 94.6 µM (inactive) | 43.8 µM (inactive) | 43.9 µM (inactive) | > 100 µM (inactive) |  | > 100 µM (inactive) | 42.5 µM (inactive) | > 100 µM (inactive) | > 100 µM (inactive) | > 100 µM (inactive) | > 100 µM (inactive) | > 100 µM (inactive) | > 100 µM (inactive) | 29.1 µM (inactive) | > 100 µM (inactive) | 43.7 µM (inactive) |
